Experimental data published in ChEMBL document CHEMBL4334438, “Discovery of novel glycogen synthase kinase-3α inhibitors: Structure-based virtual screening, preliminary SAR and biological evaluation for treatment of acute myeloid leukemia” (Eur J Med Chem, 2019).

How the values were obtained:
[1] = molecular target: Tyrosine-protein kinase ABL1 (Homo sapiens) (UniProt P00519); assay: Inhibition of human ABL1 (27 to end residues) assessed as residual activity at 1 uM using EAIYAAPFAKKK as substrate incubated for 40 mins in presence of [gamma-33ATP] by scintillation counting based radiometry assay relative to control
[2] = test system: Tyrosine-protein kinase ABL1 (Homo sapiens), P00519 [M351T]; assay: Inhibition of human ABL1 M351T mutant (27 to end residues) assessed as residual activity at 1 uM using EAIYAAPFAKKK as substrate incubated for 40 mins in presence of [gamma-33ATP] by scintillation counting based radiometry assay relative to control
[3] = molecular target: 5'-AMP-activated protein kinase catalytic subunit alpha-2 (Homo sapiens) (UniProt P54646); assay: Inhibition of recombinant full length human AMPKalpha2 assessed as residual activity at 1 uM using AMARAASAAALAR as substrate incubated for 40 mins in presence of [gamma-33ATP] by scintillation counting based radiometry assay relative to control
5'-AMP-activated protein kinase catalytic subunit alpha-2 (Homo sapiens), sequence (P54646 whole entry, looked up, the tested form may be a part): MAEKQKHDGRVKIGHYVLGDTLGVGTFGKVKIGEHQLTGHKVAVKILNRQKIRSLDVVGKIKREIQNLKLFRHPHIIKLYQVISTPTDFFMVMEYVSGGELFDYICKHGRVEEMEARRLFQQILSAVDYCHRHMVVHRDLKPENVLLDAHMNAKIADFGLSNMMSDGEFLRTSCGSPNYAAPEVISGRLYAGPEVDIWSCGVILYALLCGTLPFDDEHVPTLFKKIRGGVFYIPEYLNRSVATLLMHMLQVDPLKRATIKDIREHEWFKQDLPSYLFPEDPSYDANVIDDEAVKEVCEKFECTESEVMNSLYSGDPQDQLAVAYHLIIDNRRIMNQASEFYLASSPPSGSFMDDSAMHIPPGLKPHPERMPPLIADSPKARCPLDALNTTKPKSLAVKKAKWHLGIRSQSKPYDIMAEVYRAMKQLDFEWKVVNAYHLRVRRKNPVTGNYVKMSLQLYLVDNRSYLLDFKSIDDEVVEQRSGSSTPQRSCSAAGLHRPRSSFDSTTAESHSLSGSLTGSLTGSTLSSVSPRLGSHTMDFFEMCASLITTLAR

[4] = molecular target: Mitogen-activated protein kinase kinase kinase 5 (Homo sapiens) (UniProt Q99683); assay: Inhibition of recombinant human ASK1 (649 to 946 residues) assessed as residual activity at 1 uM using myelin basic protein as substrate incubated for 40 mins in presence of [gamma-33ATP] by scintillation counting based radiometry assay relative to control
[5] = test system: Calcium/calmodulin-dependent protein kinase kinase 2 (Homo sapiens), Q96RR4 [T85S]; assay: Inhibition of recombinant full length human CaMKK2 T85S mutant assessed as residual activity at 1 uM […] incubated for 40 mins in presence of [gamma-33ATP] by scintillation counting based radiometry assay relative to control
Calcium/calmodulin-dependent protein kinase kinase 2 (Homo sapiens), Q96RR4 [T85S], sequence (Q96RR4 whole entry T85S): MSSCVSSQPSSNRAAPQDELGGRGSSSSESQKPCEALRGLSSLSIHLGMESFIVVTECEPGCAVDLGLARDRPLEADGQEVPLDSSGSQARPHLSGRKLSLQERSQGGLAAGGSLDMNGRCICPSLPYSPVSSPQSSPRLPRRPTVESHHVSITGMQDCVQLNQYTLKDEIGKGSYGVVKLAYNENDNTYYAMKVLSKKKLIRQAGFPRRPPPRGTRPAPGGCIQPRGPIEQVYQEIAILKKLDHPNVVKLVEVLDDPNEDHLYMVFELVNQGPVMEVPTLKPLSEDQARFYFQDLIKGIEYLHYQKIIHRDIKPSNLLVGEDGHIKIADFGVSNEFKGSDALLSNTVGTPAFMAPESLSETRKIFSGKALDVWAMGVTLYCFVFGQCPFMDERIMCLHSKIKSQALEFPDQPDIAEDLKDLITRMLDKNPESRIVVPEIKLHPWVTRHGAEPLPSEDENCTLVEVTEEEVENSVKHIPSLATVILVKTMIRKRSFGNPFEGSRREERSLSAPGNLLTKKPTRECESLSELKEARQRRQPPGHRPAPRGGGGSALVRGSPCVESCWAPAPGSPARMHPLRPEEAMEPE

[6] = test system: CDK18/Cyclin Y (Homo sapiens), Q07002+Q8ND76 [T166M]; assay: Inhibition of recombinant full length human CDK18 /cyclinY T166M mutant assessed as residual activity at 1 uM using YRRAAVPPSPSLS as substrate incubated for 40 mins in presence of [gamma-33ATP] by scintillation counting based radiometry assay relative to control; format: protein-complex assay
[7] = test system: Mast/stem cell growth factor receptor Kit (Homo sapiens), P10721 [V654A]; assay: Inhibition of recombinant human C-Kit V654A mutant (544 to end residues) assessed as residual activity at 1 uM poly(Glu, Tyr) 4:1 as substrate incubated 40 mins in presence of [gamma-33ATP] by scintillation counting based radiometry assay relative to control
Mast/stem cell growth factor receptor Kit (Homo sapiens), P10721 [V654A], sequence (P10721 whole entry V654A): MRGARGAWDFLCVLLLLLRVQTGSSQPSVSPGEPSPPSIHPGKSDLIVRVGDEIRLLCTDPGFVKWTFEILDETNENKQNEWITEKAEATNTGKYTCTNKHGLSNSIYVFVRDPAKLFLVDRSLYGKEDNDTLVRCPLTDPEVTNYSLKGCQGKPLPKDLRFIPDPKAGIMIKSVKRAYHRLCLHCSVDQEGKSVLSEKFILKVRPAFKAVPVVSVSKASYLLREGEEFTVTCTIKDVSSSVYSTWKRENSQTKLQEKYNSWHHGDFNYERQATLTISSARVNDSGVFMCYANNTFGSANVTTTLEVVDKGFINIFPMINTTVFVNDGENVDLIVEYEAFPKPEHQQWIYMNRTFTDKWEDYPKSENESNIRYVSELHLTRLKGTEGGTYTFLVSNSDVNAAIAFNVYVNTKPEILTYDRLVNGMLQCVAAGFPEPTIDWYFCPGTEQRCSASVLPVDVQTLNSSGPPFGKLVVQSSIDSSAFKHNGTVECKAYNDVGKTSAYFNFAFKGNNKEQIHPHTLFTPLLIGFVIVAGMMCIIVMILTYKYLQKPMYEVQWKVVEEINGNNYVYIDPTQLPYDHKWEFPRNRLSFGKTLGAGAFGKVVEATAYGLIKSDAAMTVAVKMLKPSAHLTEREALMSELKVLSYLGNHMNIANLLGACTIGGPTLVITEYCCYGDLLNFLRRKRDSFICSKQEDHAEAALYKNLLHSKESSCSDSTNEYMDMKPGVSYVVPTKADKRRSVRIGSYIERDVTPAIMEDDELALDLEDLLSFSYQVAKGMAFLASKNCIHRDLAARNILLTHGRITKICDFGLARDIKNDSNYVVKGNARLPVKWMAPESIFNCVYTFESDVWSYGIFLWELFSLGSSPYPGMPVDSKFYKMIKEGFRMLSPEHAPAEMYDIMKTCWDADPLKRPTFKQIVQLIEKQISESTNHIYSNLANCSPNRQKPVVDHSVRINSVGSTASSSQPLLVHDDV

[8] = test system: Epidermal growth factor receptor (Homo sapiens), P00533 [L861Q]; assay: Inhibition of recombinant human EGFR L861Q mutant (696 to end residues) assessed as residual activity at 1 uM using poly(Glu, Tyr) 4:1 as substrate at 40 mins in presence of [gamma-33ATP] by scintillation counting based radiometry assay relative to control
[9] = molecular target: Focal adhesion kinase 1 (Homo sapiens) (UniProt Q05397); assay: Inhibition of recombinant human FAK (411 to 686 residues) assessed as residual activity at 1 uM using EEEEYEEEEEEYYIIEEEEEEYEEEEEEYYEEEEEEKKKK as substrate at 40 mins in presence of [gamma-33ATP] by scintillation counting based radiometry assay relative to control
[10] = test system: Homeodomain-interacting protein kinase 2 (Homo sapiens), Q9H2X6 [UNDEFINED MUTATION]; assay: Inhibition of human HIPK2 I471N mutant (165 to 564 residues) assessed as residual activity at 1 uM using myelin basic protein as substrate after 40 mins by [gamma-33ATP] radiometric assay relative to control
Homeodomain-interacting protein kinase 2 (Homo sapiens), Q9H2X6 [UNDEFINED MUTATION], sequence (Q9H2X6 whole entry, looked up, stated change not applied, the tested form may be a part): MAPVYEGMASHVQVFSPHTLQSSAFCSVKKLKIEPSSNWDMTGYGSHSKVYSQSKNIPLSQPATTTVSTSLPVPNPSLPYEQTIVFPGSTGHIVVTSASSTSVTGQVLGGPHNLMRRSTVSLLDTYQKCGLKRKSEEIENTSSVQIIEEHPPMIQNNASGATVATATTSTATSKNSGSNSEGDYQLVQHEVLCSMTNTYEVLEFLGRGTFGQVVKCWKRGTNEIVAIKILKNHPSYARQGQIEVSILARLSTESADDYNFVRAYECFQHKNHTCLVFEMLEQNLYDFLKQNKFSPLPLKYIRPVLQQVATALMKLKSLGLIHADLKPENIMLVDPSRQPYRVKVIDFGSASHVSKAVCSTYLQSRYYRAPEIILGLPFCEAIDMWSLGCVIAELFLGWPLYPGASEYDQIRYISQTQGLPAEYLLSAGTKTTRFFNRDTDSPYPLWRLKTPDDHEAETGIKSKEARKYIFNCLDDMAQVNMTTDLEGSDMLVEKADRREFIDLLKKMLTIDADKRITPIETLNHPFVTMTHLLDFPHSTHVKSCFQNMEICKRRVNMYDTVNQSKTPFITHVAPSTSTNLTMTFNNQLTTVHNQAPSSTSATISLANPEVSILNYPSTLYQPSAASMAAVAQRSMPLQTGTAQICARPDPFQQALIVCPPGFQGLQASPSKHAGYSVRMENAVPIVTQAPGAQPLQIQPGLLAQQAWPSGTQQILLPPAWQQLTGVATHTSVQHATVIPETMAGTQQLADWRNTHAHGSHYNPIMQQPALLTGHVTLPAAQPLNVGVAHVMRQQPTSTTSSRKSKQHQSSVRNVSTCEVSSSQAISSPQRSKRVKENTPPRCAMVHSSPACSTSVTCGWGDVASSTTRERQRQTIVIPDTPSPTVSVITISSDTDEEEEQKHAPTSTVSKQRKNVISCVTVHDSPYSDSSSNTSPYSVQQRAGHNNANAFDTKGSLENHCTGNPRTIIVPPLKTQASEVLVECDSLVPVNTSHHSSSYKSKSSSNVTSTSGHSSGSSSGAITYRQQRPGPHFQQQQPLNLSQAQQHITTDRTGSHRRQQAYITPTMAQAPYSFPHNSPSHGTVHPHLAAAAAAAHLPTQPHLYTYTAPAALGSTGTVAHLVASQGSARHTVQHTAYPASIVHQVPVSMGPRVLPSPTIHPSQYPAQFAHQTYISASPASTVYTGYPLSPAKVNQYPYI

[11] = molecular target: Insulin receptor (Homo sapiens) (UniProt P06213); assay: Inhibition of human activated IR (1005 to 1310 residues) assessed as residual activity at 1 uM using KKKSPGEYVNIEFG as substrate after 40 mins by [gamma-33ATP] radiometric assay relative to control
[12] = molecular target: Serine/threonine-protein kinase MAK (Homo sapiens) (UniProt P20794); assay: Inhibition of recombinant human MAK assessed as residual activity at 1 uM using RRRFRPASPLRGPPK as substrate after 120 mins in presence of [gamma-33ATP] by scintillation counting based radiometry assay relative to control
[13] = molecular target: Serine/threonine-protein kinase 38-like (Homo sapiens) (UniProt Q9Y2H1); assay: Inhibition of recombinant human NDR2 (83 to end residues) assessed as residual activity at 1 uM using RSRSRSRSRSRSRSR as substrate measured after 40 mins in presence of [gamma33P]ATP by scintillation counting method relative to control
Serine/threonine-protein kinase 38-like (Homo sapiens), sequence (Q9Y2H1 2-464 limits assumed): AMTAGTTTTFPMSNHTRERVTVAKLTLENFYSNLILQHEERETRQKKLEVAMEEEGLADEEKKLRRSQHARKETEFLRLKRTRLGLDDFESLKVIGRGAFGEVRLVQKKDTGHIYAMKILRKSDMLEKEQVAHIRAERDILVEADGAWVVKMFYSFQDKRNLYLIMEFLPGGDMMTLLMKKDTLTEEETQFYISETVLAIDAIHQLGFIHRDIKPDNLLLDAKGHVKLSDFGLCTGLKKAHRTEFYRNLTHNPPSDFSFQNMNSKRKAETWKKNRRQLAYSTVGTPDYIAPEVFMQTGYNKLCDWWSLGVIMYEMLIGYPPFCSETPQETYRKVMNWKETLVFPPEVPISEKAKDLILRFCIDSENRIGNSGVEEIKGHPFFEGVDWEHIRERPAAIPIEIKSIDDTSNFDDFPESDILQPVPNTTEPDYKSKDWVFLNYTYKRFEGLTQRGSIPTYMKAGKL

[14] = molecular target: Phosphorylase b kinase gamma catalytic chain, skeletal muscle/heart isoform (Homo sapiens) (UniProt Q16816); assay: Inhibition of recombinant full-length human PhKgamma1 assessed as residual activity at 1 uM using KKLNRTLSFAEPG as substrate measured after 120 mins in presence of [gamma33P]ATP by scintillation counting method relative to control
Phosphorylase b kinase gamma catalytic chain, skeletal muscle/heart isoform (Homo sapiens), sequence (Q16816 whole entry, looked up, canonical isoform): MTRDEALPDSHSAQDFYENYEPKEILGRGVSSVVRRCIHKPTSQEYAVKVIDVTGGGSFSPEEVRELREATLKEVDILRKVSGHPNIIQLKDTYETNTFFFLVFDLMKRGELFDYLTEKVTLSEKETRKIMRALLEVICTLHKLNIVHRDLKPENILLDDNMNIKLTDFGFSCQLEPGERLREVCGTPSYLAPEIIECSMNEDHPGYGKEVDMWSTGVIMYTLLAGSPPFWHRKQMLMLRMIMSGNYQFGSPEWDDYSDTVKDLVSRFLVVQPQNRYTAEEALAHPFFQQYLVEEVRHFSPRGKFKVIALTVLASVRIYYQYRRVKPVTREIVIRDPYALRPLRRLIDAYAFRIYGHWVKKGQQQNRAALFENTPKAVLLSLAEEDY

[15] = molecular target: cAMP-dependent protein kinase catalytic subunit alpha (Homo sapiens) (UniProt P17612); assay: Inhibition of recombinant human PKA assessed as residual activity at 1 uM using Kemptide as substrate measured after 40 mins in presence of [gamma33P]ATP by scintillation counting method relative to control
[16] = test system: Serine/threonine-protein kinase D1 (Homo sapiens), Q15139 [UNDEFINED MUTATION]; assay: Inhibition of recombinant full-length human PKCmu R135A mutant assessed as residual activity at 1 uM using KKLNRTLSVA as substrate incubated for 40 mins in presence of [gamma33P]ATP by scintillation counting based radiometry assay relative to control
[17] = molecular target: Tyrosine-protein kinase receptor TYRO3 (Homo sapiens) (UniProt Q06418); assay: Inhibition of recombinant human RSE (451 to end residues) assessed as residual activity at 1 uM using KVEKIGEGTYGVVYK as substrate measured after 40 mins in presence of [gamma33P]ATP by scintillation counting method relative to control
[18] = test system: Serine/threonine-protein kinase Sgk1 (Homo sapiens), O00141 [S422D]; assay: Inhibition of recombinant human SGK S422D mutant (60 to end residues) assessed as residual activity at 1 uM using GRPRTSSFAEGKK as substrate measured after 40 mins in presence of [gamma33P]ATP by scintillation counting method relative to control
Serine/threonine-protein kinase Sgk1 (Homo sapiens), O00141 [S422D], sequence (O00141 whole entry S422D): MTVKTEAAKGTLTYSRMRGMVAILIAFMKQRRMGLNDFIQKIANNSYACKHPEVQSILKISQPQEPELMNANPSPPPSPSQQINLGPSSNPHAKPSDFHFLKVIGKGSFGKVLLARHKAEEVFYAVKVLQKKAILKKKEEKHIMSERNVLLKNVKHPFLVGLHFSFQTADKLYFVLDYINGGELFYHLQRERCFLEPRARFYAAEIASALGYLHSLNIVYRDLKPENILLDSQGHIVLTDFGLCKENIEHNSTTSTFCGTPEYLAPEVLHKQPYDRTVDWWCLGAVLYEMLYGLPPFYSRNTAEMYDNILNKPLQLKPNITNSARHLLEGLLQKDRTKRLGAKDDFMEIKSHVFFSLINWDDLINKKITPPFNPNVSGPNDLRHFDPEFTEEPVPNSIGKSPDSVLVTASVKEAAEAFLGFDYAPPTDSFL

[19] = molecular target: Transcription initiation factor TFIID subunit 1-like (Homo sapiens) (UniProt Q8IZX4); assay: Inhibition of human TAF1L (1428 to end residues) assessed as residual activity at 1 uM using RRRFRPASPLRGPPK as substrate measured after 120 mins in presence of [gamma33P]ATP by scintillation counting method relative to control
[20] = molecular target: Serine/threonine-protein kinase VRK1 (Homo sapiens) (UniProt Q99986); assay: Inhibition of human VRK1 assessed as residual activity at 1 uM by radiometric method relative to control
Serine/threonine-protein kinase VRK1 (Homo sapiens), sequence (Q99986 whole entry): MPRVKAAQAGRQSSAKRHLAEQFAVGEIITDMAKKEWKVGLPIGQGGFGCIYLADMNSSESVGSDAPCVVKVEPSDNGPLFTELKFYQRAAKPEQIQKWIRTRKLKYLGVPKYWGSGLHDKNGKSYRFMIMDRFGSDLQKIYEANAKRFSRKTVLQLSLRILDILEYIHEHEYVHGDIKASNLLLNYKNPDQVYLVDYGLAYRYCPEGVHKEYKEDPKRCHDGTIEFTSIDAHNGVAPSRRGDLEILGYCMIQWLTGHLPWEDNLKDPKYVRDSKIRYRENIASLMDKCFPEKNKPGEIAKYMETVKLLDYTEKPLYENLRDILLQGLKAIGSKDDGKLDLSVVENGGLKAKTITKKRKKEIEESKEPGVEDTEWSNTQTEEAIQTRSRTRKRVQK

[21] = molecular target: Phosphatidylinositol 5-phosphate 4-kinase type-2 alpha (Homo sapiens) (UniProt P48426); assay: Inhibition of recombinant full-length human PIP4K2alpha at 1 uM assessed as residual activity at 1 uM using phosphatidylinositol 5-phosphate as substrate measured after 40 mins by HTRF assay

For `N=C1NC(=O)/C(=C\c2ccc(-c3cccc([N+](=O)[O-])c3)o2)S1`, the Activity [1] was 85%, the Activity [2] was 97% and the Activity [3] was 44%. The Activity [4] was 101%, the Activity [5] was 92% and the Activity [6] was 57%. It also gave an Activity [7] of 108%, an Activity [8] of 85% and an Activity [9] of 105%. The Activity [10] was 1%, the Activity [11] was 103% and the Activity [12] was 17%. The Activity [13] was 92%, the Activity [14] was 91% and the Activity [15] was 107%. It also gave an Activity [16] of 97%, an Activity [17] of 110% and an Activity [18] of 98%. The Activity [19] was 51%, the Activity [20] was 92% and the Activity [21] was 99%.
`C=CCOC(=O)c1cc(-c2ccc(/C=C3/NC(=S)NC3=O)o2)ccc1Cl` was tested, and the Activity [1] was 122%, the Activity [2] was 103% and the Activity [3] was 33%. For the same molecule, the Activity [4] was 102%, the Activity [5] was 94% and the Activity [6] was 87%. For the same molecule, the Activity [7] was 95%, the Activity [8] was 106% and the Activity [9] was 105%. For the same molecule, the Activity [10] was 5%, the Activity [11] was 106% and the Activity [12] was 37%. The Activity [13] was 118%, the Activity [14] was 94% and the Activity [15] was 82%. For the same molecule, the Activity [16] was 99%, the Activity [17] was 100% and the Activity [18] was 91%. For the same molecule, the Activity [19] was 66%, the Activity [20] was 99% and the Activity [21] was 98%.
